The experiment addresses HiBiT-RR BRD4 (Homo sapiens, UniProt O60885). Briefly: Kinetic degradation of HiBiT-RR BRD4 CRISPR knock-in in HEK293 cells. It is filed as cell-based. (In general: With HiBiT, luminescence reflects the tagged protein that the partner subunit can reach.)

SMILES strings stand for the structures.

Consider `Cc1ncsc1-c1ccc(CNC(=O)[C@@H]2C[C@@H](O)CN2C(=O)[C@@H](NC(=O)COCCOCCOCCNC(=O)C[C@@H]2N=C(c3ccc(Cl)cc3)c3c(sc(C)c3C)-n3c(C)nnc32)C(C)(C)C)cc1` [MZ1], for which the “DC50 or Dmax difference HiBiT-KK vs HiBiT-RR BRD4” value was “no significant DC50 or Dmax difference”.

(Values after paper PMC11318018 (ACS Medicinal Chemistry Letters, 2024).)
